Target: c-Myc template DNA (c-myc quadruplex)
Assay: Quadruplex binding / stop assay (Taq polymerase arrest, capillary electrophoresis)
Conditions: read-out: Stop Data c-Myc μM; concentration at which 50% of the DNA was arrested (arrested:full-length 1:1)

`CN1CCCC1CCNC(=O)c1cn2c3c(c(N4CC[C@@H](NC(=O)OC(C)(C)C)C4)c(F)cc3c1=O)Oc1cc3ccccc3cc1-2` (stereo partly shown) [compound 120] gave an IC50 of 1.75 µM.
For `CC(C)(C)OC(=O)N[C@@H]1CCN(c2c(F)cc3c(=O)c(C(=O)NCCN4CCCC4)cn4c3c2Oc2cc3ccccc3cc2-4)C1` [compound 121], the IC50 was 1.75 µM.
Molecule `CN1CCCC1CCNc1c(F)cc2c(=O)c(C(=O)NCCCN3CCOCC3)cn3c2c1Oc1cc2ccccc2cc1-3` (stereo not shown) [compound 122] has an IC50 of 1.75 µM.
Molecule `CN1CCN(CCCNC(=O)c2cn3c4c(c(NCCC5CCCN5C)c(F)cc4c2=O)Oc2cc4ccccc4cc2-3)CC1` (stereo not shown) [compound 123] has an IC50 of 1.75 µM.
`CN1CCCC1CCNC(=O)c1cn2c3c(c(NCCC4CCCN4C)c(F)cc3c1=O)Oc1cc3ccccc3cc1-2` (stereo not shown) [compound 124] was tested, and the IC50 was 1.75 µM.
For `CN(C)CCCCNC(=O)c1cn2c3c(c(NCCC4CCCN4C)c(F)cc3c1=O)Oc1cc3ccccc3cc1-2` (stereo not shown) [compound 125], the IC50 was 1.75 µM.
Work on `CN(C)CCCCNC(=O)c1cn2c3c(c(NCCCCN(C)C)c(F)cc3c1=O)Oc1cc3ccccc3cc1-2` [compound 126] yielded an IC50 of 1.75 µM.
Molecule `CN1CCN(CCCNC(=O)c2cn3c4c(c(NCCCN5CCOCC5)c(F)cc4c2=O)Oc2c-3ccc3ccccc23)CC1` [compound 127] has an IC50 of 1.75 µM.
`CN1CCCC1CCNC(=O)c1cn2c3c(c(NCCCN4CCOCC4)c(F)cc3c1=O)Oc1c-2ccc2ccccc12` (stereo not shown) [compound 128] was tested, and the IC50 was 1.75 µM.
`CN(C)CCCCNC(=O)c1cn2c3c(c(NCCCN4CCOCC4)c(F)cc3c1=O)Oc1c-2ccc2ccccc12` [compound 129] gave an IC50 of 1.75 µM.
`CN1CCN(CCCNC(=O)c2cn3c4c(c(NCCN5CCOCC5)c(F)cc4c2=O)Oc2c-3ccc3ccccc23)CC1` [compound 130] gave an IC50 of 1.75 µM.
In the case of `CN1CCCC1CCNC(=O)c1cn2c3c(c(NCCN4CCOCC4)c(F)cc3c1=O)Oc1c-2ccc2ccccc12` (stereo not shown) [compound 131], the IC50 is reported as 1.75 µM.
In the case of `CN1CCCC1CCNC(=O)c1cn2c3c(c(N4CC[C@@H](NC(=O)OC(C)(C)C)C4)c(F)cc3c1=O)Oc1c-2ccc2ccccc12` (stereo partly shown) [compound 132], the IC50 is reported as 1.75 µM.
`CC(C)(C)OC(=O)N[C@@H]1CCN(c2c(F)cc3c(=O)c(C(=O)NCCN4CCCC4)cn4c3c2Oc2c-4ccc3ccccc23)C1` [compound 133] gave an IC50 of 1.75 µM.
Molecule `CN1CCCC1CCNc1c(F)cc2c(=O)c(C(=O)NCCN3CCOCC3)cn3c2c1Oc1c-3ccc2ccccc12` (stereo not shown) [compound 134] has an IC50 of 1.75 µM.
`CN1CCCC1CCNc1c(F)cc2c(=O)c(C(=O)NCCCn3ccnc3)cn3c2c1Oc1c-3ccc2ccccc12` (stereo not shown) [compound 135] showed an IC50 of 1.75 µM.
In the case of `CN(C)c1ccc(NC(=O)c2cn3c4c(c(NCCC5CCCN5C)c(F)cc4c2=O)Oc2c-3ccc3ccccc23)cc1` (stereo not shown) [compound 136], the IC50 is reported as 1.75 µM.
`O=C(NCCCN1CCOCC1)c1cn2c3c(c(NCCN4CCCC4)c(F)cc3c1=O)Oc1c-2ccc2ccccc12` [compound 137] gave an IC50 of 1.75 µM.
`CN1CCCC1CCNC(=O)c1cn2c3c(c(NCCN4CCCC4)c(F)cc3c1=O)Oc1c-2ccc2ccccc12` (stereo not shown) [compound 138] was tested, and the IC50 was 1.75 µM.
`O=C(NCCN1CCCC1)c1cn2c3c(c(NCCN4CCCC4)c(F)cc3c1=O)Oc1c-2ccc2ccccc12` [compound 139] gave an IC50 of 1.75 µM.
With `O=C(NCCCn1ccnc1)c1cn2c3c(c(NCCN4CCCC4)c(F)cc3c1=O)Oc1c-2ccc2ccccc12` [compound 140] the IC50 was 1.75 µM.
`CN(C)CCCCNc1c(F)cc2c(=O)c(C(=O)NCCN3CCOCC3)cn3c2c1Oc1c-3ccc2ccccc12` [compound 141] showed an IC50 of 1.75 µM.
`CN(C)CCCCNc1c(F)cc2c(=O)c(C(=O)NCCCn3ccnc3)cn3c2c1Oc1c-3ccc2ccccc12` [compound 142] showed an IC50 of 1.75 µM.
Work on `O=C(NCCCN1CCOCC1)c1cn2c3c(c(NCCCN4CCOCC4)c(F)cc3c1=O)Oc1cc3c(cc1-2)oc1ccccc13` [compound 143] yielded an IC50 of 1.75 µM.
Molecule `CN1CCN(CCCNC(=O)c2cn3c4c(c(NCCCN5CCOCC5)c(F)cc4c2=O)Oc2cc4c(cc2-3)oc2ccccc24)CC1` [compound 144] has an IC50 of 1.75 µM.
In the case of `CN(C)CCCCNC(=O)c1cn2c3c(c(NCCCN4CCOCC4)c(F)cc3c1=O)Oc1cc3c(cc1-2)oc1ccccc13` [compound 145], the IC50 is reported as 1.75 µM.
For `CN1CCN(CCCNC(=O)c2cn3c4c(c(NCCN5CCOCC5)c(F)cc4c2=O)Oc2cc4c(cc2-3)oc2ccccc24)CC1` [compound 146], the IC50 was 1.75 µM.
With `CN1CCCC1CCNC(=O)c1cn2c3c(c(NCCN4CCOCC4)c(F)cc3c1=O)Oc1cc3c(cc1-2)oc1ccccc13` (stereo not shown) [compound 147] the IC50 was 1.75 µM.
`O=C(NCCN1CCCC1)c1cn2c3c(c(NCCN4CCOCC4)c(F)cc3c1=O)Oc1cc3c(cc1-2)oc1ccccc13` [compound 148] gave an IC50 of 1.75 µM.
`CN1CCN(CCCNc2c(F)cc3c(=O)c(C(=O)NCCCN4CCOCC4)cn4c3c2Oc2cc3c(cc2-4)oc2ccccc23)CC1` [compound 149] was tested, and the IC50 was 1.75 µM.
In the case of `CN1CCN(CCCNc2c(F)cc3c(=O)c(C(=O)NCCN4CCOCC4)cn4c3c2Oc2cc3c(cc2-4)oc2ccccc23)CC1` [compound 150], the IC50 is reported as 1.75 µM.
Molecule `CN1CCN(CCCNC(=O)c2cn3c4c(c(NCCCN5CCN(C)CC5)c(F)cc4c2=O)Oc2cc4c(cc2-3)oc2ccccc24)CC1` [compound 151] has an IC50 of 1.75 µM.
Work on `CN1CCN(CCCNc2c(F)cc3c(=O)c(C(=O)NCCN4CCCC4)cn4c3c2Oc2cc3c(cc2-4)oc2ccccc23)CC1` [compound 152] yielded an IC50 of 1.75 µM.
With `CN(C)CCCCNC(=O)c1cn2c3c(c(NCCCN4CCN(C)CC4)c(F)cc3c1=O)Oc1cc3c(cc1-2)oc1ccccc13` [compound 153] the IC50 was 1.75 µM.
For `CN1CCN(CCCNc2c(F)cc3c(=O)c(C(=O)N4CCN(C)CC4)cn4c3c2Oc2cc3c(cc2-4)oc2ccccc23)CC1` [compound 154], the IC50 was 1.75 µM.
`CN(C)CCCCNC(=O)c1cn2c3c(c(N4CCC(NC(=O)OC(C)(C)C)C4)c(F)cc3c1=O)Oc1cc3c(cc1-2)oc1ccccc13` (stereo not shown) [compound 155] showed an IC50 of 1.75 µM.
For `CN(C)CCCCNC(=O)c1cn2c3c(c(N4CC[C@@H](N)C4)c(F)cc3c1=O)Oc1c-2ccc2ccccc12` [compound 156], the IC50 was 1.75 µM.
With `N[C@@H]1CCN(c2c(F)cc3c(=O)c(C(=O)NCCCn4ccnc4)cn4c3c2Oc2c-4ccc3ccccc23)C1` [compound 157] the IC50 was 1.75 µM.
Work on `CN1CCCC1CCNc1c(F)cc2c(=O)c(C(=O)NCCN3CCOCC3)cn3c2c1Oc1cc2c(cc1-3)oc1ccccc12` (stereo not shown) [compound 158] yielded an IC50 of 1.75 µM.
`CN1CCCC1CCNc1c(F)cc2c(=O)c(C(=O)NCCCn3ccnc3)cn3c2c1Oc1cc2c(cc1-3)oc1ccccc12` (stereo not shown) [compound 159] showed an IC50 of 1.75 µM.
With `O=C(NCCCN1CCOCC1)c1cn2c3c(c(NCCN4CCCC4)c(F)cc3c1=O)Oc1cc3c(cc1-2)oc1ccccc13` [compound 160] the IC50 was 1.75 µM.
Molecule `CN(C)CCCCNC(=O)c1cn2c3c(c(NCCN4CCCC4)c(F)cc3c1=O)Oc1cc3c(cc1-2)oc1ccccc13` [compound 161] has an IC50 of 1.75 µM.
In the case of `CN(C)CCCCNc1c(F)cc2c(=O)c(C(=O)NCCCN3CCOCC3)cn3c2c1Oc1cc2c(cc1-3)oc1ccccc12` [compound 162], the IC50 is reported as 1.75 µM.
Molecule `CN(C)CCCCNc1c(F)cc2c(=O)c(C(=O)NCCN3CCOCC3)cn3c2c1Oc1cc2c(cc1-3)oc1ccccc12` [compound 163] has an IC50 of 1.75 µM.
In the case of `CN(C)CCCCNc1c(F)cc2c(=O)c(C(=O)N3CCN(C)CC3)cn3c2c1Oc1cc2c(cc1-3)oc1ccccc12` [compound 164], the IC50 is reported as 1.75 µM.
`CN1CCN(CCCNC(=O)c2cn3c4cc5c(=O)c6ccccc6c(=O)c5cc4oc4c(NCCC5CCCN5C)c(F)cc(c2=O)c43)CC1` (stereo not shown) [compound 165] was tested, and the IC50 was 1.75 µM.
`O=C(NCCCN1CCOCC1)c1cn2c3cc4c(=O)c5ccccc5c(=O)c4cc3oc3c(NCCCN4CCOCC4)c(F)cc(c1=O)c32` [compound 166] gave an IC50 of 1.75 µM.
For `CN(C)CCCCNC(=O)c1cn2c3cc4c(=O)c5ccccc5c(=O)c4cc3oc3c(NCCCN4CCOCC4)c(F)cc(c1=O)c32` [compound 167], the IC50 was 1.75 µM.
For `CN1CCCC1CCNC(=O)c1cn2c3cc4c(=O)c5ccccc5c(=O)c4cc3oc3c(N4CCC(NC(=O)OC(C)(C)C)C4)c(F)cc(c1=O)c32` (stereo not shown) [compound 168], the IC50 was 1.75 µM.
With `CN1CCN(CCCNC(=O)c2cn3c4cc5c(=O)c6ccccc6c(=O)c5cc4oc4c(N5CCC(NC(=O)OC(C)(C)C)C5)c(F)cc(c2=O)c43)CC1` (stereo not shown) [compound 169] the IC50 was 1.75 µM.
`CN1CCN(CCCNc2c(F)cc3c(=O)c(C(=O)N4CCN(C)CC4)cn4c5cc6c(=O)c7ccccc7c(=O)c6cc5oc2c34)CC1` [compound 170] showed an IC50 of 1.75 µM.
Molecule `CN(C)CCCCNc1c(F)cc2c(=O)c(C(=O)NCCCN3CCN(C)CC3)cn3c4cc5c(=O)c6ccccc6c(=O)c5cc4oc1c23` [compound 171] has an IC50 of 1.75 µM.
For `CN1CCN(c2c(F)cc3c(=O)c(C(=O)NCCCN4CCOCC4)cn4c5cc6c(=O)c7ccccc7c(=O)c6cc5oc2c34)CC1` [compound 172], the IC50 was 1.75 µM.
`CN1CCN(CCCNC(=O)c2cn3c4c(c(N5CC[C@@H](NC(=O)CCN6CCN(C)CC6)C5)c(F)cc4c2=O)Oc2cc4c(cc2-3)oc2ccccc24)CC1` [compound 173] showed an IC50 of 1.75 µM.
For `CN1CCN(CCCNC(=O)c2cn3c4c(c(N5CC[C@@H](NC(=O)CCN6CCCC6)C5)c(F)cc4c2=O)Oc2cc4c(cc2-3)oc2ccccc24)CC1` [compound 174], the IC50 was 1.75 µM.
`CN(C)CCC(=O)N[C@@H]1CCN(c2c(F)cc3c(=O)c(C(=O)NCCCN4CCN(C)CC4)cn4c3c2Oc2cc3c(cc2-4)oc2ccccc23)C1` [compound 175] gave an IC50 of 1.75 µM.
`CN(C)CCCCNC(=O)c1cn2c3c(c(N4CC[C@@H](NC(=O)CCN5CCOCC5)C4)c(F)cc3c1=O)Oc1cc3c(cc1-2)oc1ccccc13` [compound 176] was tested, and the IC50 was 1.75 µM.
For `CN(C)CCCCNCCC(=O)N[C@@H]1CCN(c2c(F)cc3c(=O)c(C(=O)N4CCOCC4)cn4c3c2Oc2cc3c(cc2-4)oc2ccccc23)C1` [compound 177], the IC50 was 1.75 µM.
In the case of `CC(=O)N[C@@H]1CCN(c2c(F)cc3c(=O)c(C(=O)NCCCN4CCOCC4)cn4c3c2Oc2cc3c(cc2-4)oc2ccccc23)C1` [compound 178], the IC50 is reported as 1.75 µM.
`CC(=O)N[C@@H]1CCN(c2c(F)cc3c(=O)c(C(=O)NCCCN4CCN(C)CC4)cn4c3c2Oc2cc3c(cc2-4)oc2ccccc23)C1` [compound 179] showed an IC50 of 1.75 µM.
With `O=C(CNCCN1CCCC1)N[C@@H]1CCN(c2c(F)cc3c(=O)c(C(=O)N4CCOCC4)cn4c3c2Oc2cc3c(cc2-4)oc2ccccc23)C1` [compound 180] the IC50 was 1.75 µM.
